Assays:
Vaccinia VP13 = test: microbe, parasite or virus in culture; type: cell-based, Vaccinia virus; details: for EC50: Orthopoxvirus vaccinia, HFF-1, 96 h
Cowpox virus = test: microbe, parasite or virus in culture; type: cell-based; details: for EC50: Cowpox virus, HFF-1, 96 h
Smallpox virus = test: microbe, parasite or virus in culture; type: cell-based; details: for EC50: Variola virus, HFF-1, 96 h
in vitro = details: human
Monkeypox virus = test: microbe, parasite or virus in culture; type: cell-based; details: for EC50: Monkeypox virus, HFF-1, 96 h

[N-]=[N+]=NC1(CO)OC(n2ccc(N)nc2=O)C(F)C1O (centres unmarked) [Compound 1, Azvudine]
activity to inhibit vaccinia virus (in words) (Vaccinia VP13): significant inhibitory effect | EC50 (Vaccinia VP13): 570 nM | activity to inhibit cowpox virus (in words) (Cowpox virus): significant inhibitory effect | EC50 (Cowpox virus): 750 nM | activity to inhibit smallpox virus (in words) (Smallpox virus): significant inhibitory effect | EC50 (Smallpox virus): 1200 nM | CC50 (in vitro): > 10000 nM | activity to inhibit monkeypox virus (in words) (Monkeypox virus): significant inhibitory effect | EC50 (Monkeypox virus): 320 nM

O=C(NN1C(=O)[C@@H]2[C@@H]3C=C[C@@H]([C@H]4C[C@@H]34)[C@@H]2C1=O)c1ccc(C(F)(F)F)cc1 [ST-246, reference compound]
EC50 (Vaccinia VP13): 40 nM | EC50 (Cowpox virus): 50 nM | EC50 (Smallpox virus): 70 nM | CC50 (in vitro): > 100000 nM | EC50 (Monkeypox virus): 30 nM
